From PubChem BioAssay (NCI)
Where “and” joins values, the source holds several entries; their conditions need not be identical. Equal values may be shown once.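 Tested at 5 concentrations; 48 h exposure; 96-well plates; endpoints linearly interpolated, else capped at highest concentration. At the GI50, growth is halved. TGI denotes the concentration required for complete inhibition of growth.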

Tests used:
Experiment in all cases: NCI-60 cell line screen, 48 h
SF-268 CNS = tested on: SF-268 CNS
A498 renal = tested on: A498 renal
OVCAR-4 ovarian = tested on: OVCAR-4 ovarian
RPMI-8226 leukemia = tested on: RPMI-8226 leukemia
NCI-H226 lung = tested on: NCI-H226 lung
SF-539 CNS = tested on: SF-539 CNS
COLO 205 colon = tested on: COLO 205 colon
CAKI-1 renal = tested on: CAKI-1 renal
NCI-H460 lung = tested on: NCI-H460 lung
LOX IMVI melanoma = tested on: LOX IMVI melanoma

Row | Compound | GI50 (SF-268 CNS) | TGI (SF-268 CNS) | GI50 (A498 renal) | TGI (A498 renal) | GI50 (OVCAR-4 ovarian) | TGI (OVCAR-4 ovarian) | GI50 (RPMI-8226 leukemia) | TGI (RPMI-8226 leukemia) | GI50 (NCI-H226 lung) | TGI (NCI-H226 lung) | GI50 (SF-539 CNS) | TGI (SF-539 CNS) | GI50 (COLO 205 colon) | TGI (COLO 205 colon) | GI50 (CAKI-1 renal) | TGI (CAKI-1 renal) | GI50 (NCI-H460 lung) | TGI (NCI-H460 lung) | GI50 (LOX IMVI melanoma) | TGI (LOX IMVI melanoma)
1 | Nc1nc(=S)c2ncn(C3OC(CO)C(O)C3O)c2[nH]1 (stereo unspecified) | 0.755 µM | > 100 µM | 5.11 µM | > 87.6 µM | 1860 nM | > 100 µM | 322 nM | 2.29 µM | 3.5 µM | > 100 µM | 0.745 µM | > 79.2 µM | 2180 nM | 7.82 µM | 703 nM | 5.88 µM | 571 nM | 12.2 µM | 301 nM | 11.8 µM
2 | O=c1c2cccc(F)c2sc2c(NCCCNCCO)nc3ccccc3c12 | 1.55 µM | 3.12 µM | 1.5 µM | 2.88 µM | 1770 nM | 3.64 µM | 1760 nM | 3.99 µM | 1.7 µM | 3.35 µM | 1.65 µM | 3.05 µM | 1610 nM | 3.96 µM | 1420 nM | 2.73 µM | 653 nM | 1.95 µM | 1130 nM | 2.38 µM
3 | NS(=O)(=O)c1ccc(N=Nc2c(O)[nH]c3ccc(C(=O)NCCc4cnc[nH]4)cc23)cc1 | > 25 µM | > 25 µM | > 25 µM | > 25 µM | > 25000 nM | > 25 µM | > 25000 nM | > 25 µM | > 25 µM | > 25 µM | > 25 µM | > 25 µM | > 25000 nM | > 25 µM | > 25000 nM | > 25 µM | > 25000 nM | > 25 µM | > 25000 nM | > 25 µM
4 | O=C(Nc1ccccc1)n1cc(-c2ccccn2)c(N2CCOCC2)n1 | – | > 100 µM | – | 51.1 µM | – | > 100 µM | – | > 100 µM | – | > 100 µM | – | 57.6 µM | – | > 100 µM | – | 49.7 µM | – | > 100 µM | – | > 100 µM
5 | O=C(COc1cccc(/C=C2\COc3ccccc3C2=O)c1)c1ccccc1 | 3.23 µM | 10.2 µM | 0.266 µM | 6.78 µM | 3840 nM | 15.4 µM | 1840 nM | 4.85 µM | 12.3 µM | 25.4 µM | 15.6 µM | 29 µM | 2930 nM | 10.3 µM | 3320 nM | 12.7 µM | 12300 nM | 24.9 µM | 1660 nM | 3.12 µM
6 | O=C(CCC(=O)Nc1ccc(Cl)cc1)CC(=O)c1ccc2ccccc2c1 | – | > 100 µM | – | > 100 µM | – | > 100 µM | – | > 100 µM | – | > 100 µM | – | > 100 µM | – | > 100 µM | – | > 100 µM | – | > 100 µM | – | > 100 µM
7 | O=C(/C=C/c1ccco1)Nc1ncc(Cc2cccc(C(F)(F)F)c2)s1 | 0.167 µM | > 44.2 µM | 0.0267 µM | 1.73 µM | 495 nM | 4.03 µM | 291 nM | 10.9 µM | 0.336 µM | – | 0.0762 µM | 0.313 µM | 43.3 nM | 0.166 µM | 46.4 nM | 7.93 µM | 40.1 nM | 9.59 µM | 57.2 nM | 2.92 µM
8 | C[C@]12CCCN1CC1=NNC(=O)c3cc(F)cc4[nH]c2c1c34 | 19 µM | 61.4 µM | 13.9 µM | 34.3 µM | 24900 nM | > 100 µM | 19100 nM | 52.3 µM | 7.84 µM | 67.7 µM | 17.6 µM | 57.7 µM | 14600 nM | 40.6 µM | 7730 nM | > 100 µM | 11500 nM | > 100 µM | 7640 nM | 60.3 µM
9 | CC1NC(C(=O)O)Cc2cc(O)c(O)cc21 (stereo unspecified) | – | > 100 µM | – | > 100 µM | – | > 100 µM | – | > 100 µM | – | > 100 µM | – | > 100 µM | – | > 100 µM | – | > 100 µM | – | > 100 µM | – | > 100 µM
10 | N#CC(C#N)=Cc1ccc(C(O)P(=O)(O)O)cc1 (stereo unspecified) | – | > 100 µM | – | > 100 µM | – | > 100 µM | – | > 100 µM | – | > 100 µM | – | > 100 µM | – | > 100 µM | – | > 100 µM | – | > 100 µM | – | > 100 µM
11 | CC(=O)NC(CS)C(=O)O (stereo unspecified) | > 100 µM | > 100 µM and 63800 µM | – | 18500 µM | > 100000 nM | > 100 µM | > 100000 nM | > 100 µM and 3720 µM | > 100 µM | > 100 µM and 45000 µM | > 100 µM | > 100 µM | > 100000 nM | > 100 µM | > 100000 nM | > 100 µM and 53400 µM | – | 62300 µM | – | > 100 µM
12 | CCSc1nc(NC(C)c2ccccc2)c2cnn(CO)c2n1 (stereo unspecified) | > 100 µM | > 100 µM | 27 µM | > 100 µM | 86400 nM | > 100 µM | > 100000 nM | > 100 µM | 47 µM | > 100 µM | 94.4 µM | > 100 µM | > 100000 nM | > 100 µM | 135 nM | 56.1 µM | 32800 nM | > 100 µM | 37000 nM | > 100 µM
13 | O=C(Nc1ccc(Oc2ccc(NC(=O)Nc3ccccc3Cl)cc2)cc1)Nc1ccccc1Cl | 8.11 µM | 55.1 µM | 22.2 µM | 64.3 µM | 2710 nM | 24.4 µM | 1190 nM | 15.7 µM | 15.6 µM | 49 µM | 6 µM | 22.1 µM | 15700 nM | > 100 µM | > 31900 nM | > 88.2 µM | 2490 nM | > 100 µM | 10800 nM | > 100 µM
14 | O=C(/C=C\c1cc(Br)ccc1O)/C=C/c1cc(Br)ccc1O | 1.33 µM | 3.1 µM | 1.65 µM | 3.26 µM | 1210 nM | 6.87 µM | 300 nM | 1.4 µM | 2.63 µM | 8.69 µM | 1.47 µM | 3.35 µM | 1550 nM | 3.69 µM | 938 nM | 3.33 µM | 1570 nM | 3.91 µM | 208 nM | 0.463 µM
